# Assay results as given in patent publication EP4810493A1, “HETEROCYCLIC CARBONYL DERIVATIVE MODULATOR, PREPARATION METHOD THEREFOR, AND USE THEREOF” (Shanghai Hansoh Biomedical Co., Ltd., priority 2023, dated 2025).
# Tested on: not listed separately
# Experiment: Pharmacokinetic determination in SD rats
# Conditions: rat, in vivo, po; male SD rats, p.o. 5 mg/kg
# Protocol: To investigate the pharmacokinetic behaviours of the example compounds in both plasma and brain of SD rats (test animals) following oral administration at a dose of 5 mg/kg.
# 2.1 Test drugs: The example compounds of the present invention, made in house.
# 2.2 Test animals: SD Rat, male.
# 24 SD Rats, male; p.o. respectively at a dose of 5 mg/kg and an administration volume of 10 mL/kg after the rats were fasted overnight.
# Formulation of a drug for oral administration: 0.5% CMC-Na (1% Tween 80).
# 0.50 g of sodium carboxymethyl cellulose (CMC-Na, viscosity: 800-1200 Cps) was weighed and dissolved in 99 mL of purified water, and 1 ml of Tween 80 was added. The components were mixed thoroughly under stirring to form a clear solution.
# The example compound was weighed into a 100 mL glass vial, 80 mL of the solution was added, and the mixture was subjected to ultrasound treatment for 10 minutes to obtain a homogeneous suspension with a concentration of 0.5 mg/mL.
# After the test animals were euthanised by CO2, blood samples were collected from the heart and brain tissues were harvested at 0.25 h, 0.5 h, 1 h, 2 h, 4 h, 6 h, 8 h, and 24 h post-dose. Blood was placed in EDTA-2K tubes, and centrifuged at 6000 rpm for 6 min at 4°C to separate the plasma. Brain tissues were rinsed with pre-cold PBS, blotted dry, and weighed. Both plasma and brain samples were stored at -80°C. The animals were fed 4 h after administration.
# • 3) 40 uL of plasma sample was precipitated with 160 uL of acetonitrile, mixed, and centrifuged at 3500 × g for 5-20 min. Brain tissues were diluted, homogenised and centrifuged. • 4) 100 uL of the treated supernatant solution was taken for LC/MS/MS analysis to determine the concentration of the test compounds.
# • Liquid phase conditions: Shimadzu LC-20AD pump • Mass spectrometry conditions: AB Sciex API 4000 mass spectrometer • Chromatographic column: Phenomenex Gemiu 5 um C18 50 × 4.6 mm • Mobile phase: solution A: 0.1% formic acid in water, solution B: acetonitrile • Flow rate: 0.8 mL/min • Elution time: 0-4.0 min, with eluents as follows:
# The main pharmacokinetic parameters were calculated using WinNonlin 8.1.
SMILES,AUC(0-inf) [µg·h/mL],Cmax [µg/mL],Tmax [h]
Cc1c2c(c3ccnn3c1C)CN(C(=O)OC1CN(c3ccnc(C(F)F)c3)C1)C2 [Example 142],9.32,1.38,2

# Same assay, conditions: rat, in vivo, po; male SD rats, p.o. 5 mg/kg; read-out: MRT 0-∞
row,SMILES,MRT inf [h]
1,Cc1c2c(c3ccnn3c1C)CN(C(=O)OC1CN(c3ccnc(C(F)F)c3)C1)C2 [Example 142],4.4

# Biological target: T1, M4 receptor (Homo sapiens, UniProt P08173)
# T1 construct: expressed in transfected cells
# T1 sequence (P08173 1-479): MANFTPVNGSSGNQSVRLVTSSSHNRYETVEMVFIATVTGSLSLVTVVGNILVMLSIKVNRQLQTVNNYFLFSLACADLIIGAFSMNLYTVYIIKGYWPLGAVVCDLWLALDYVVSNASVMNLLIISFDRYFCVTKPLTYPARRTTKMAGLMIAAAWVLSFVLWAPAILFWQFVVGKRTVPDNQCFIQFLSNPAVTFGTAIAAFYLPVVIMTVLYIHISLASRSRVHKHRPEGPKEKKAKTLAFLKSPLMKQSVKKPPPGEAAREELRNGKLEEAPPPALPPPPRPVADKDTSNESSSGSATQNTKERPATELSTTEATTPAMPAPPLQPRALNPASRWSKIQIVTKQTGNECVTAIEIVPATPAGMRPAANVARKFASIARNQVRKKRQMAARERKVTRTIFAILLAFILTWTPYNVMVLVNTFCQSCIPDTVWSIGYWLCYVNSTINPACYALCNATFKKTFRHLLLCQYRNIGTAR
# Experiment: Calcium flux (FLIPR) potentiation assay in cells stably expressing M4 receptor
# Format: cell-based
# Conditions: not given
# Description: Test example 1. Determination of the effect of the compounds of the present invention on calcium current in cells stably expressing M1-M5 receptors
# To detect the potentiating effect of compounds on calcium flux activity in CHO-K1/human M1/3/5 and CHO-K1/Gα15 M2/4 cells.
# 384-well assay plate, 384-well plate, FLIPR Tip, FLIPR Penta plate reader, Dispendix non-contact nanoliter dispensing system (liquid handling workstation), liquid handler.
# Ham's F-12 Nutrient Mix, foetal bovine serum, P/S (Gibco: 15140122), HBSS (Gibco: 14025076), HEPES (Gibco: 15630080), FLIPR calcium 6 assay kit (Molecular Devices: R8190), Probenecid (PBA) (Invitrogen: P36400), Acetylcholine chloride (Sigma: A6625-25G) Complete culture medium: DMEM + 10% FBS + 1X P/S; Cell seeding medium: DMEM + 10% FBS + 1X PS; Assay buffer 1: 1X HBSS + 20 mM HEPES +2.5 mM Probenecid; Assay buffer 2: 1X HBSS + 20 mM HEPES; Cell line: CHO-K1/M1; CHO-K1/M2/Gα15; CHO-K1/M3; CHO-K1/M4/Gα15; CHO-K1/M5.
# FLIPR calcium 6 assay kit: Component A was dissolved in Assay buffer 1, and the mixture was shaken for 1-2 min, sub-packaged and stored at -20°C.
# • 1) CHO-K1/M1; CHO-K1/M2/Gα15; CHO-K1/M3; CHO-K1/M4/Gα15; and CHO-K1/M5 cell lines were cultured separately in complete culture medium at 37°C, 5% CO2 to 70%-90% confluency. • 2) The cells were digested and resuspended in cell seeding medium, 5,000 cells/well/20 µL were seeded into a 384-well cell culture plate, and the cells were cultured at 37°C, 5% CO2 for 24 hours. • 3) The cell culture plate was taken out of the CO2 incubator and equilibrated at room temperature for 10 minutes. • 4) Component A solution was removed and allowed to equilibrate to room temperature. 20 µL of Component A solution was added to each well of the cell culture plate, and incubated at room temperature in the dark for 1 hour. • 5) Acetylcholine chloride (ACh), a muscarinic receptor agonist, was prepared in Assay buffer 2 at EC20/EC100 concentrations; subsequently, 30 µL of the prepared muscarinic receptor agonist was added to a 384-well agonist plate (PE: 6008590) using a Multidrop Combi; the working solutions of the positive control compound and the test compound were serially diluted at a 3.16-fold gradient and dispensed (450 nL) into a 384-well compound plate (PE: 6008590) using the Dispendix liquid handling workstation; 30 µL of Assay buffer 2 was added to the 384-well compound plate (PE: 6008590) using the Multidrop Combi; the positive control compound and the test compound were diluted to 6X, mixed by shaking, and placed at room temperature until use. • 6) 10 µL of the diluted 6X compound was added to the assay wells of the corresponding 384-well cell plate using the FLIPR Penta, followed by a 2-minute incubation. • 7) 10 µL of the prepared muscarinic receptor agonist was added to the assay wells of the corresponding 384-well cell plate using the FLIPR Penta, with simultaneous data acquisition.
# FLIPR Penta was used to read and collect the fluorescence signal value (RFU). The maximum RFU value was used to calculate the percent activation data based on the readings of the Low control (DMSO control group) and High control (ACh EC100) experimental groups {% activation rate = (RFUsample - RFUlow control) / (RFUhigh control - RFUlow control)×100}. The test compound was diluted 3.16X in the reaction system to generate 11 concentration points ranging from 30 µM to […].
row,SMILES,EC50 [µM]
1,Cc1cn2nc(N3CC(CC(=O)N4Cc5c(C)c(C)n6ncnc6c5C4)C3)ccc2n1 [Example 55],0.0181
2,Cc1c2c(c3nccn3c1C)CN(C(=O)CC1CC1c1ccc(F)nc1)C2 (stereo not drawn) [Example 104],0.0538
3,Cc1c2c(c3ncnn3c1C)CN(C(=O)OC1CN(c3cc(Cl)ncc3Cl)C1)C2 [Example 187],0.0282

# Same assay, conditions: CHO-K1/M4/Gα15 cells; potentiation of acetylcholine (EC20) calcium flux; read-out: M4 FLIPR EC50
row,SMILES,EC50 [µM]
1,"Cc1c2c(c3ncnn3c1C)CN(C(=O)CC1CN(c3ccnc(C(F)(F)F)c3)C1)C2 [Example 20, 1-(5,6-Dimethyl-7,9-dihydro-8H-pyrrolo[3,4-c][1,2,4]triazolo[1,5-a]pyridin-8-yl)-2-(1-(2-(trifluoromethyl)pyridin-4-yl)azetidin-3-yl)ethan-1-one]",0.0147
2,Cc1c2c(c3ncnn3c1C)CN(C(=O)CC1CN(c3ccc(S(=O)(=O)C(F)F)cc3)C1)C2 [Example 25],0.0095
3,Cc1c2c(c3ncnn3c1C)CN(C(=O)c1ccc(F)c(Cl)c1)C2 [Example 29],0.037
4,Cc1c2c(c3ncnn3c1C)CN(C(=O)C1CCN(c3ccncn3)C1)C2 (stereo not drawn) [Example 34],0.0404
5,CN=S(C)(=O)c1ccc(N2CC(CC(=O)N3Cc4c(C)c(C)n5ncnc5c4C3)C2)cc1 (stereo not drawn) [Example 38],0.0379
6,CCNc1nccc(N2CC(CC(=O)N3Cc4c(C)c(C)n5ncnc5c4C3)C2)n1 [Example 53],0.008
7,Cc1c2c(c3ncnn3c1C)CN(C(=O)CC1CN(c3cc(NC(C)C)ncn3)C1)C2 [Example 54],0.0096
8,Cc1nc2c3c(c(C)c(C)n2n1)CN(C(=O)CC1CN(c2ccnc(C(F)(F)F)c2)C1)C3 [Example 57],0.018
9,"Cc1c2c(c3nccn3c1C)CN(C(=O)CC1CN(c3ccnc(C(F)(F)F)c3)C1)C2 [Example 60, 1-(5,6-Dimethyl-7,9-dihydro-8H-imidazo[1,2-a]pyrrolo[3,4-c]pyridin-8-yl)-2-(1-(2-(trifluoromethyl)pyridin-4-yl)azetidin-3-yl)ethan-1-one]",0.0088
10,Cc1c2c(c3ncnn3c1C)CN(C(=O)CC1CN(c3ccnc(S(=O)(=O)N(C)C)c3)C1)C2 [Example 61],0.0106
11,Cc1c2c(c3nccn3c1C)CN(C(=O)CC1CN(c3ccnc(OC(F)F)c3)C1)C2 [Example 70],0.0736
12,Cc1c2c(c3nccn3c1C)CN(C(=O)OC1CN(c3ccnc(C(F)(F)F)c3)C1)C2 [Example 71],0.0719
13,Cc1c2c(c3nccn3c1C)CN(C(=O)OC1CN(c3ccnc(OC(F)F)c3)C1)C2 [Example 72],0.0875
14,Cc1c2c(c3ncnn3c1C)CN(C(=O)CC1CN(c3ccnc(C4CCCCO4)c3)C1)C2 (stereo not drawn) [Example 100],0.0184
15,Cc1c2c(c3nccn3c1C)CN(C(=O)CC1CN(c3ccnc(C(F)F)c3)C1)C2 [Example 101],0.0335
16,"Cc1c2c(c3ncnn3c1C)CN(C(=O)C[C@@H]1C[C@H]1c1ccc(F)nc1)C2 [Example 103, 1-(5,6-Dimethyl-7,9-dihydro-8H-pyrrolo[3,4-c][1,2,4]triazolo[1,5-a]pyridin-8-yl)-2-((1S,2R)-2-(6-fluoropyridin-3-yl)cyclopropyl)ethan-1-one]",0.0244

row,SMILES,EC50 [µM]
1,Cc1cn2nc(N3CC(CC(=O)N4Cc5c(C)c(C)n6nc(C)nc6c5C4)C3)ccc2n1 [Example 127],0.0152
2,Cc1nc2c3c(c(C)c(C)n2n1)CN(C(=O)C1CCN(c2ccncn2)C1)C3 (stereo not drawn) [Example 140],0.0517
3,Cc1c2c(c3nc(C4CC4)nn3c1C)CN(C(=O)CC1CN(c3ccnc(C(F)(F)F)c3)C1)C2 [Example 143],0.0309
4,Cc1c2c(c3nc(N)nn3c1C)CN(C(=O)CC1CN(c3ccnc(C(F)(F)F)c3)C1)C2 [Example 145],0.0274
5,Cc1c2c(c3ncnn3c1C)CN(C(=O)CC1CN(c3cc(Cl)ncc3Cl)C1)C2 [Example 146],0.0124
6,Cc1c2c(c3nnnn3c1C)CN(C(=O)CC1CN(c3ccnc(C(F)(F)F)c3)C1)C2 [Example 148],0.0377
7,Cc1cn2cc(N3CC(OC(=O)N4Cc5c(C)c(C)n6ncnc6c5C4)C3)ccc2n1 [Example 178],0.0838
8,Cc1c2c(c3nnnn3c1C)CN(C(=O)OC1CN(c3ccnc(OC(F)F)c3)C1)C2 [Example 179],0.0571
9,Cc1c2c(c3ncnn3c1C)CN(C(=O)OC1CN(c3cc(C(F)(F)F)ncc3Cl)C1)C2 [Example 180],0.0695
10,Cc1c2c(c3nc(N)nn3c1C)CN(C(=O)CC1CN(c3ccnc(OC(F)F)c3)C1)C2 [Example 181],0.0259
11,Cc1c2c(c3ncnn3c1C)CN(C(=O)OC1CN(c3cc(C(F)F)ncc3Cl)C1)C2 [Example 184],0.0441
12,Cc1c2c(c3ncnn3c1C)CN(C(=O)CC1CN(c3ccnc(OCC(F)F)c3)C1)C2 [Example 185],0.0111
13,Cc1c2c(c3ncnn3c1C)CN(C(=O)CC1CN(c3ccnc(OCC(F)(F)F)c3)C1)C2 [Example 186],0.0288
14,Cc1c2c(c3ncnn3c1C)CN(C(=O)OC1CN(c3ccc4nc(CF)cn4n3)C1)C2 [Example 190],0.0732
15,Cc1cn2nc(N3CC(OC(=O)N4Cc5c(C)c(C)n6nccc6c5C4)C3)ccc2n1 [Example 200],0.0394
16,Cc1cn2nc(N3CC(CC(=O)N4Cc5c(C)c(C)n6nccc6c5C4)C3)ccc2n1 [Example 201],0.0564
